Data: patent publication US20040152722A1 (priority 2001, published 2004)

Key:
[1] = test system: Tremor Model of Mice Induced by Agonist of Cholinergic M-Receptor: Arecaline; conditions: mouse, in vivo, po
[2] = test system: Rigidity Model of Mouse Induced By Haloperidol; conditions: in vivo, po

For OC(CCN1CCCCC1)(c1ccccc1)C1CCCCC1 (centres unmarked) [Benzhexol], the “ED50 + L95” value [1] was 8.82 ± 0.83 mg/kg and the “ED50 + L95” value [2] was 19.56 ± 1.44 mg/kg.
